Assay results reported in publication PMC2779710 (Journal of medicinal chemistry, 2009).
Positions of bridges follow the written chain, without caps; N, C: chain ends. Non-standard residues stand in square brackets, D forms with d. Residues, ends and D or L forms follow the SMILES beside them. Phe(4-CH2NHiPr) = CC(C)NCc1ccc(C[C@H](N)C(=O)O)cc1

What was measured:
SRIF receptor = settings: cited from earlier work
human sst1 receptor = human sst1 receptor (Homo sapiens, UniProt P30872); assay: Luciferase reporter gene assay in CCL39-sst1-Luci cells; settings: for Luciferase Assay (agonist/antagonist property): CCL39-sst1-Luci cells, 0.1 nM to 1 μM, 5 h
human sst1 receptor, sequence (P30872 whole entry): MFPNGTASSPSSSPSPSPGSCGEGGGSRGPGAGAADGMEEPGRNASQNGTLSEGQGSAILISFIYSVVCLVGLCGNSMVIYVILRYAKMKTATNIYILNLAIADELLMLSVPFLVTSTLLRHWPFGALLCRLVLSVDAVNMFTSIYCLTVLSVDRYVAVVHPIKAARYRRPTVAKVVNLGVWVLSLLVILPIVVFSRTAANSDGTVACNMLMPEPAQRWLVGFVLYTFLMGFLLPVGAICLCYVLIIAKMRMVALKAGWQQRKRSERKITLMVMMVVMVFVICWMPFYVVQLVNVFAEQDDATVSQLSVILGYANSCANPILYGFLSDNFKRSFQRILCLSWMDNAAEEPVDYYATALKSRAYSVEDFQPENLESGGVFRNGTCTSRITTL

SMILES | Luciferase Assay (agonist/antagonist property) (human sst1 receptor) | less potent than SRIF or 25 in luciferase reporter gene assay (human sst1 receptor; EC50 comparison) | binding affinity to any SRIF receptor (SRIF receptor)
CC(C)NCc1ccc(C[C@@H]2NC(=O)[C@@H](Cc3c[nH]c4ccccc34)NC(=O)[C@H](Cc3ccccc3)NC(=O)[C@H](Cc3ccccc3)NC(=O)[C@@H](N)CSSC[C@@H](C(=O)O)NC(=O)[C@H](Cc3ccccc3)NC(=O)[C@H]([C@@H](C)O)NC2=O)cc1 [Compound 9, des-AA^1,2,4,5,12,13-[DTrp^8, IAmp^9]-SRIF] (H-CFF[dW][Phe(4-CH2NHiPr)]TFC-OH; disulfide 1-8 (inferred)) |  |  | no binding affinity
CC(C)NCc1ccc(C[C@@H]2NC(=O)[C@@H](N(C)C(=O)c3ccc4ccccc4c3)NC(=O)[C@H](Cc3ccccc3)NC(=O)[C@@H](N)CSSC[C@@H](C(=O)N[C@H](C(N)=O)[C@@H](C)O)NC(=O)[C@H](Cc3ccccc3)NC2=O)cc1 [Compound 23, des-AA^1,2,4-6,10,12,13-[DAgl(NMe,2naphthoyl)^8,IAmp^9]-SRIF-Thr-NH2] | agonist |  | 
CC(C)NCc1ccc(C[C@@H]2NC(=O)[C@@H](N(C)C(=O)c3ccc4ccccc4c3)NC(=O)[C@H](Cc3ccccc3)NC(=O)[C@@H](NC(=O)[C@H](N)Cc3ccc(O)cc3)CSSC[C@@H](C(=O)N[C@H](C(N)=O)[C@@H](C)O)NC(=O)[C@H](Cc3ccccc3)NC2=O)cc1 [Compound 25, des-AA^1,4-6,10,12,13-[DTyr^2,DAgl(NMe,2naphthoyl)^8,IAmp^9]-SRIF-Thr-NH2] | potent sst1 agonist |  | 
CC(C)NCc1ccc(C[C@@H]2NC(=O)[C@@H](N(C)C(=O)c3ccc4ccccc4c3)NC(=O)[C@H](Cc3ccccc3)NC(=O)[C@@H](N)CSSC[C@@H](C(N)=O)NC(=O)[C@H](Cc3ccc(O)cc3)NC2=O)cc1 [Compound 27, des-AA^1,2,4-6,10,12,13-[DAgl(NMe,2naphthoyl)^8,IAmp^9,Tyr^11]-SRIF-NH2] | agonist |  | 

Continued, in another order:

Luciferase Assay (agonist/antagonist property) (human sst1 receptor) | less potent than SRIF or 25 in luciferase reporter gene assay (human sst1 receptor; EC50 comparison) | SMILES | binding affinity to any SRIF receptor (SRIF receptor)
agonist |  | CC(C)NCc1ccc(C[C@@H]2NC(=O)[C@@H](N(C)C(=O)c3ccc4ccccc4c3)NC(=O)[C@H](Cc3ccccc3)NC(=O)[C@H](N)CSSC[C@@H](C(=O)N[C@@H](Cc3ccc4ccccc4c3)C(N)=O)NC(=O)[C@H](Cc3ccccc3)NC2=O)cc1 [Compound 29, des-AA^1,2,4-6,10,12,13-[DCys^3,DAgl(NMe,2naphthoyl)^8,IAmp^9]-SRIF-2Nal-NH2] | 
agonist | approximately 100 fold | CC(C)NCc1ccc(C[C@@H]2NC(=O)[C@@H](Cc3c[nH]c4ccccc34)NC(=O)[C@H](Cc3ccccc3)NC(=O)[C@H](Cc3ccccc3)NC(=O)[C@H](CCCCN)NC(=O)[C@@H](NC(=O)[C@@H](N)Cc3ccc(O)cc3)CSSC[C@@H](C(=O)O)NC(=O)[C@H](CO)NC(=O)[C@H]([C@@H](C)O)NC(=O)[C@H](Cc3ccccc3)NC(=O)[C@H]([C@@H](C)O)NC2=O)cc1 [Compound 33, reference compound] (H-YCKFF[dW][Phe(4-CH2NHiPr)]TFTSC-OH; disulfide 2-12 (inferred)) | 
